Measured values published in PubChem BioAssay AID1963872 (Molecular Pharmacology Branch, DTP, NCI, 2024).
pIC50: −log10 of the molar value.

Test system: KRAS patient-derived spheroids with HUVEC/MSC, viability
Experiment: Anticancer human tumor 519858-162-T-J1-PDC patient-derived colon adenocarcinoma cell line growth inhibition [KRAS2]
Settings: for pIC50: curve of first compound; for viability, T/C: stronger effect = lower value
Source text: Multicellular complex tumor spheroid response to RAS pathway inhibitors in combination with a targeted agents in patient-derived cell lines with oncogenic KRAS variants from multiple cancer types
A high-throughput screen of multi-cell type tumor spheroids was designed to identify active combinations of targeted small molecules and KRAS pathway inhibitors. Complex spheroids include a stromal component modeled by human endothelial cells (HUVEC) and fibroblasts modeled by human mesenchymal stem cells (MSCs). The concentration ranges selected for each drug and investigational agent were based upon clinically achievable concentrations if the clinical Cmax of the agent was known.
Compounds. The drugs and investigational agents: BI-3406 (NSC825286), BAY-293 (NSC824723), batoprotafib (TNO155; NSC825523), sotorasib (AMG 510; NSC818433), MRTX1257 (NSC819558), elimusertib (BAY 1895344; NSC800525), molibresib (GSK525762; NSC774829), temuterkib (LY3214996; NSC803410), venetoclax (NSC766270), alisertib (NSC759677), olaparib (NSC753686), talazoparib (NSC767125), erdafitinib (NSC781556), ipatasertib (NSC767898), cabozantinib (NSC761068), nintedanib (NSC756659), abemaciclib (NSC768073), docetaxel (NSC628503), trametinib (NSC758246), and sapanisertib (NSC764658) were obtained from the National Cancer Institute (NCI) Developmental Therapeutics Program Chemical Repository. The FDA-approved anticancer drug set is available from the Developmental Therapeutics Program. […] The stock solutions were prepared in dimethyl sulfoxide (DMSO, Sigma-Aldrich, St. Louis, MO, cat. D2650) at 800-fold the tested concentration and stored at -70 degrees C prior to their use. All drugs and investigational agents were tested over a range starting from a high concentration at or near the clinical Cmax and decreasing in half-log increments. If the clinical Cmax for an agent had not been determined, the highest concentration tested was 10 microM.
Cell Culture. All cells were maintained in an incubator at 37 degrees C and 5% CO2 with 95% humidity. The PDC lines were cultured according to standard operating procedures established by the NCI PDMR (https://pdmr.cancer.gov/sops/default.htm). Briefly, all PDCs were thawed and cultured in Matrigel-coated flasks prepared with a working solution of 1X Ham's F-12 nutrient mix, without supplementation (Invitrogen, Waltham, MA, cat. 11765054), 100 U/mL penicillin-streptomycin (Invitrogen, cat. 15140122), and 2.5% Matrigel (Corning Inc., Corning, NY, cat. 354248) for the first three passages. All PDCs were cultured in complete DMEM/F-12 media containing advanced DMEM/F-12 (Invitrogen, cat. 12634028), 4.9% defined fetal bovine serum, heat inactivated (HyClone Laboratories Inc., Logan, UT, cat. SH30070.03HI), 389 ng/mL hydrocortisone (Sigma-Aldrich, cat. H4001), 9.7 ng/mL human EGF recombinant protein (Invitrogen, cat. PHG0313), 23.4 microg/mL adenine (Sigma-Aldrich, cat. A2786), 97.3 U/mL penicillin-streptomycin (Invitrogen, cat. 15140122), 1.9 mM L-glutamine (Invitrogen, cat. 25030081), and 9.7 microM Y-27632 dihydrochloride (Tocris Bioscience, Bristol, United Kingdom, cat. 1254). The PDCs were cultured in complete DMEM/F12 media without 9.7 microM Y-27632 dihydrochloride for at least two passages prior to the screen. The established cell line HOP-62 was cultured in RPMI 1640 medium, HEPES (Invitrogen, cat. 22400105) with 10% defined fetal bovine serum (HyClone Laboratories Inc., cat. SH30070.03) and 2 mM L-glutamine (Invitrogen, cat. 25030081). The pooled donor HUVEC were cultured in endothelial cell growth medium 2 (PromoCell, Heidelberg, Germany, cat. C-22011) and the hMSC were cultured in mesenchymal stem cell growth medium 2 (PromoCell, cat. C-28009). For all experiments, HUVEC and hMSC were used at passages </=5, while the malignant cell lines were used at passages </=15. […]

[1] = second compound 0.1 µM, first compound 0.0316 µM
[2] = second compound 0.1 µM, first compound 0.1 µM
[3] = second compound 0.1 µM, first compound 0.316 µM
[4] = second compound 0.1 µM, first compound 1 µM
[5] = second compound 0.1 µM, first compound 3.16 µM
[6] = second compound 0.1 µM, first compound 10 µM
[7] = second compound 0.316 µM, first compound 0.0316 µM
[8] = second compound 0.316 µM, first compound 0.1 µM
[9] = second compound 0.316 µM, first compound 0.316 µM
[10] = second compound 0.316 µM, first compound 1 µM
[11] = second compound 0.316 µM, first compound 3.16 µM
[12] = second compound 0.316 µM, first compound 10 µM
[13] = second compound 1 µM, first compound 0.0316 µM
[14] = second compound 1 µM, first compound 0.1 µM
[15] = second compound 1 µM, first compound 0.316 µM
[16] = second compound 1 µM, first compound 1 µM
[17] = second compound 1 µM, first compound 3.16 µM
[18] = second compound 1 µM, first compound 10 µM
[19] = second compound 3.16 µM, first compound 0.0316 µM
[20] = second compound 3.16 µM, first compound 0.1 µM
[21] = second compound 3.16 µM, first compound 0.316 µM
[22] = second compound 3.16 µM, first compound 1 µM
[23] = second compound 3.16 µM, first compound 3.16 µM
[24] = second compound 3.16 µM, first compound 10 µM
[25] = second compound 10 µM, first compound 0.0316 µM
[26] = second compound 10 µM, first compound 0.1 µM
[27] = second compound 10 µM, first compound 0.316 µM
[28] = second compound 10 µM, first compound 1 µM
[29] = second compound 10 µM, first compound 3.16 µM
[30] = second compound 10 µM, first compound 10 µM
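Also: compound exposure lasted seven days before readout.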
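For viability, T/C in this document: 100% = DMSO vehicle control viability.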

Row | Compound | pIC50 (second compound 0.1 µM) | pIC50 (second compound 0.316 µM) | pIC50 (second compound 1 µM) | pIC50 (second compound 3.16 µM) | pIC50 (second compound 10 µM) | viability, T/C [1] | viability, T/C [2] | viability, T/C [3] | viability, T/C [4] | viability, T/C [5] | viability, T/C [6] | viability, T/C [7] | viability, T/C [8] | viability, T/C [9] | viability, T/C [10] | viability, T/C [11] | viability, T/C [12] | viability, T/C [13] | viability, T/C [14] | viability, T/C [15] | also measured
1 | COC(=O)c1ccc2c(C(=Nc3ccc(N(C)C(=O)CN4CCN(C)CC4)cc3)c3ccccc3)c(O)[nH]c2c1 + COc1cc2nc(C)nc(NC(C)c3cc(N)cc(C(F)(F)F)c3)c2cc1OC1CCOC1 | < 5.00 | < 5.00 | < 5.00 | < 5.00 | 5.32 | 71.2% | 44.7% | 48.3% | 71.4% | 85.2% | 113% | 59.1% | 51.8% | 92% | 75.1% | 62.1% | 73.7% | 64.5% | 57.3% | 55.1% | viability, T/C [16]: 51.6%; viability, T/C [17]: 51%; viability, T/C [18]: 77.9%; viability, T/C [19]: 64.3%; viability, T/C [20]: 64.6%; viability, T/C [21]: 50.2%; viability, T/C [22]: 55.2%; viability, T/C [23]: 66.1%; viability, T/C [24]: 88.1%; viability, T/C [25]: 66.2%; viability, T/C [26]: 53.3%; viability, T/C [27]: 56.3%; viability, T/C [28]: 80.9%; viability, T/C [29]: 128%; viability, T/C [30]: 0.38%
2 | CC1OCC2(CCN(c3cnc(Sc4ccnc(N)c4Cl)c(N)n3)CC2)C1N (stereo not given) + C=CC(=O)N1CCN(c2nc(=O)n(-c3c(C)ccnc3C(C)C)c3nc(-c4c(O)cccc4F)c(F)cc23)C(C)C1 | 5.14 | < 5.00 | 5.50 | < 5.00 | 5.41 | 94.2% | 77.3% | 68.5% | 80.4% | 63.1% | 43.7% | 90.6% | 76% | 73.1% | 59.9% | 79.6% | 63.3% | 81.6% | 68.6% | 84.3% | viability, T/C [16]: 50.3%; viability, T/C [17]: 54%; viability, T/C [18]: 49.2%; viability, T/C [19]: 67.2%; viability, T/C [20]: 101%; viability, T/C [21]: 75.7%; viability, T/C [22]: 62.5%; viability, T/C [23]: 53.3%; viability, T/C [24]: 65.4%; viability, T/C [25]: 56%; viability, T/C [26]: 73%; viability, T/C [27]: 72.3%; viability, T/C [28]: 55.6%; viability, T/C [29]: 56%; viability, T/C [30]: 31.2%
